# Laboratory results taken from the supplement of paper PMC10883282.
# ± gives the standard deviation of the averaged measurements.
# Experiments:
# Assay in all cases: relative viability vs DMSO control (72 h) (fraction); higher = more viable cells
# [1] = system: HT1080
# Procedure, shortened: (§1)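 Relative viability is percent growth read by ATPLite and averaged over up to triplicate wells. Sarcoma cells were seeded in 384-well plates to reach 80–90% confluence and given 2.5 µl of serially diluted compound after 24 h, from source plates of 10 mM to 0.0002 mM. Incubation lasted 72 h at 37 °C, 5% CO2, with 0.1% DMSO vehicle and a 5 µM positive control, and the data were rescaled so 1 equals full and 0 equals none.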
# [2] = system: G401
# Procedure, shortened: as §1
# [3] = system: SW872
# Procedure, shortened: as §1
# [4] = system: KHOS-NP
# Procedure, shortened: as §1
# [5] = system: HS729
# Procedure, shortened: as §1
# [6] = system: VA-ES-BJ
# Procedure, shortened: as §1
# [7] = system: MES-SA
# Procedure, shortened: as §1
# [8] = system: SYO-1
# Procedure, shortened: as §1
# [9] = system: SW1353
# Procedure, shortened: as §1
# [10] = system: SK-LMS-1
# Procedure, shortened: as §1
# [11] = system: A204
# Procedure, shortened: as §1
# [12] = system: SW684
# Procedure, shortened: as §1
smiles,measurement,setting,value
CN1CC[C@@H](NC(=O)Nc2ccc(C#N)cc2)C[C@@H]1c1nc2ccccc2[nH]1 [Glasdegib],relative viability,[1]; 0.00017 µM,1.07 ± 0.034
same,relative viability,[1]; 0.00051 µM,1.091 ± 0.003
same,relative viability,[1]; 0.00152 µM,1.112 ± 0.0024
same,relative viability,[1]; 0.00457 µM,1.09 ± 0.038
same,relative viability,[1]; 0.01372 µM,1.09 ± 0.026
same,relative viability,[1]; 0.04115 µM,1.112 ± 0.0081
same,relative viability,[1]; 0.1235 µM,1.1 ± 0.018
same,relative viability,[1]; 0.3704 µM,1.087 ± 0.0067
same,relative viability,[1]; 1.111 µM,1.07 ± 0.041
same,relative viability,[1]; 3.333 µM,1.054 ± 0.0082
same,relative viability,[1]; 10 µM,1.01 ± 0.053
same,relative viability,[2]; 0.00017 µM,1.04 ± 0.022
same,relative viability,[2]; 0.00051 µM,1.03 ± 0.028
same,relative viability,[2]; 0.00152 µM,1.02 ± 0.044
same,relative viability,[2]; 0.00457 µM,1.02 ± 0.016
same,relative viability,[2]; 0.01372 µM,1.03 ± 0.04
same,relative viability,[2]; 0.04115 µM,1.03 ± 0.035
same,relative viability,[2]; 0.1235 µM,1.02 ± 0.013
same,relative viability,[2]; 0.3704 µM,0.986 ± 0.028
same,relative viability,[2]; 1.111 µM,0.997 ± 0.022
same,relative viability,[2]; 3.333 µM,0.949 ± 0.012
same,relative viability,[2]; 10 µM,0.934 ± 0.028
same,relative viability,[3]; 0.00017 µM,1.08 ± 0.014
same,relative viability,[3]; 0.00051 µM,1.07 ± 0.041
same,relative viability,[3]; 0.00152 µM,1.08 ± 0.035
same,relative viability,[3]; 0.00457 µM,1.06 ± 0.035
same,relative viability,[3]; 0.01372 µM,1.06 ± 0.027
same,relative viability,[3]; 0.04115 µM,1.05 ± 0.029
same,relative viability,[3]; 0.1235 µM,1.06 ± 0.024
same,relative viability,[3]; 0.3704 µM,1.066 ± 0.0044
same,relative viability,[3]; 1.111 µM,1.05 ± 0.032
same,relative viability,[3]; 3.333 µM,1.06 ± 0.015
same,relative viability,[3]; 10 µM,1.06 ± 0.013
same,relative viability,[4]; 0.00017 µM,1.09 ± 0.035
same,relative viability,[4]; 0.00051 µM,1.1 ± 0.033
same,relative viability,[4]; 0.00152 µM,1.1 ± 0.037
same,relative viability,[4]; 0.00457 µM,1.11 ± 0.044
same,relative viability,[4]; 0.01372 µM,0.779 ± 0.59
same,relative viability,[4]; 0.04115 µM,1.1 ± 0.025
same,relative viability,[4]; 0.1235 µM,1.108 ± 0.011
same,relative viability,[4]; 0.3704 µM,1.12 ± 0.013
same,relative viability,[4]; 1.111 µM,1.11 ± 0.014
same,relative viability,[4]; 3.333 µM,1.085 ± 0.01
same,relative viability,[4]; 10 µM,1.02 ± 0.028
same,relative viability,[5]; 0.00017 µM,1.07 ± 0.025
same,relative viability,[5]; 0.00051 µM,1.02 ± 0.026
same,relative viability,[5]; 0.00152 µM,1.05 ± 0.045
same,relative viability,[5]; 0.00457 µM,0.993 ± 0.019
same,relative viability,[5]; 0.01372 µM,1.02 ± 0.05
same,relative viability,[5]; 0.04115 µM,1.05 ± 0.021
same,relative viability,[5]; 0.1235 µM,1.03 ± 0.033
same,relative viability,[5]; 0.3704 µM,0.984 ± 0.12
same,relative viability,[5]; 1.111 µM,1.03 ± 0.03
same,relative viability,[5]; 3.333 µM,0.993 ± 0.11
same,relative viability,[5]; 10 µM,1.03 ± 0.052
same,relative viability,[6]; 0.00017 µM,1.07 ± 0.059
same,relative viability,[6]; 0.00051 µM,1.07 ± 0.016
same,relative viability,[6]; 0.00152 µM,1.06 ± 0.048
same,relative viability,[6]; 0.00457 µM,1.068 ± 0.01
same,relative viability,[6]; 0.01372 µM,1.07 ± 0.027
same,relative viability,[6]; 0.04115 µM,1.06 ± 0.035
same,relative viability,[6]; 0.1235 µM,1.05 ± 0.022
same,relative viability,[6]; 0.3704 µM,1.04 ± 0.019
same,relative viability,[6]; 1.111 µM,1.01 ± 0.036
same,relative viability,[6]; 3.333 µM,1.08 ± 0.015
same,relative viability,[6]; 10 µM,1.06 ± 0.037
same,relative viability,[7]; 0.00017 µM,0.945 ± 0.011
same,relative viability,[7]; 0.00051 µM,0.956 ± 0.026
same,relative viability,[7]; 0.00152 µM,0.976 ± 0.015
same,relative viability,[7]; 0.00457 µM,0.956 ± 0.029
same,relative viability,[7]; 0.01372 µM,0.952 ± 0.054
same,relative viability,[7]; 0.04115 µM,0.915 ± 0.028
same,relative viability,[7]; 0.1235 µM,0.938 ± 0.04
same,relative viability,[7]; 0.3704 µM,0.919 ± 0.016
same,relative viability,[7]; 1.111 µM,0.926 ± 0.066
same,relative viability,[7]; 3.333 µM,0.935 ± 0.029
same,relative viability,[7]; 10 µM,0.85 ± 0.024
same,relative viability,[8]; 0.00017 µM,1.032 ± 0.0056
same,relative viability,[8]; 0.00051 µM,1.01 ± 0.031
same,relative viability,[8]; 0.00152 µM,1.01 ± 0.025
same,relative viability,[8]; 0.00457 µM,0.99 ± 0.031
same,relative viability,[8]; 0.01372 µM,0.973 ± 0.043
same,relative viability,[8]; 0.04115 µM,0.976 ± 0.043
same,relative viability,[8]; 0.1235 µM,0.991 ± 0.043
same,relative viability,[8]; 0.3704 µM,1 ± 0.035
same,relative viability,[8]; 1.111 µM,0.999 ± 0.05
same,relative viability,[8]; 3.333 µM,0.975 ± 0.043
same,relative viability,[8]; 10 µM,0.981 ± 0.072
same,relative viability,[9]; 0.00017 µM,1.1 ± 0.013
same,relative viability,[9]; 0.00051 µM,1.1 ± 0.015
same,relative viability,[9]; 0.00152 µM,1.08 ± 0.037
same,relative viability,[9]; 0.00457 µM,1.1 ± 0.031
same,relative viability,[9]; 0.01372 µM,1.09 ± 0.038
same,relative viability,[9]; 0.04115 µM,1.07 ± 0.015
same,relative viability,[9]; 0.1235 µM,1.07 ± 0.018
same,relative viability,[9]; 0.3704 µM,1.07 ± 0.028
same,relative viability,[9]; 1.111 µM,1.1 ± 0.025
same,relative viability,[9]; 3.333 µM,1.09 ± 0.029
same,relative viability,[9]; 10 µM,1.04 ± 0.024
same,relative viability,[10]; 0.00017 µM,1.08 ± 0.031
same,relative viability,[10]; 0.00051 µM,1.09 ± 0.03
same,relative viability,[10]; 0.00152 µM,1.111 ± 0.011
same,relative viability,[10]; 0.00457 µM,1.07 ± 0.018
same,relative viability,[10]; 0.01372 µM,1.14 ± 0.056
same,relative viability,[10]; 0.04115 µM,1.11 ± 0.04
same,relative viability,[10]; 0.1235 µM,1.09 ± 0.035
same,relative viability,[10]; 0.3704 µM,1.06 ± 0.037
same,relative viability,[10]; 1.111 µM,1.07 ± 0.015
same,relative viability,[10]; 3.333 µM,1.02 ± 0.028
same,relative viability,[10]; 10 µM,1.03 ± 0.036
same,relative viability,[11]; 0.00017 µM,1.07 ± 0.036
same,relative viability,[11]; 0.00051 µM,1.074 ± 0.0036
same,relative viability,[11]; 0.00152 µM,1.09 ± 0.027
same,relative viability,[11]; 0.00457 µM,1.06 ± 0.036
same,relative viability,[11]; 0.01372 µM,1.09 ± 0.025
same,relative viability,[11]; 0.04115 µM,1.06 ± 0.019
same,relative viability,[11]; 0.1235 µM,1.064 ± 0.0094
same,relative viability,[11]; 0.3704 µM,1.05 ± 0.025
same,relative viability,[11]; 1.111 µM,1.04 ± 0.032
same,relative viability,[11]; 3.333 µM,1.02 ± 0.052
same,relative viability,[11]; 10 µM,0.975 ± 0.1
same,relative viability,[12]; 0.00017 µM,1.165 ± 0.0075
same,relative viability,[12]; 0.00051 µM,1.14 ± 0.024
same,relative viability,[12]; 0.00152 µM,1.19 ± 0.047
same,relative viability,[12]; 0.00457 µM,1.15 ± 0.038
same,relative viability,[12]; 0.01372 µM,1.16 ± 0.025
same,relative viability,[12]; 0.04115 µM,1.177 ± 0.0099
same,relative viability,[12]; 0.1235 µM,1.12 ± 0.079
same,relative viability,[12]; 0.3704 µM,1.2 ± 0.02
same,relative viability,[12]; 1.111 µM,1.12 ± 0.048
same,relative viability,[12]; 3.333 µM,1.12 ± 0.064
same,relative viability,[12]; 10 µM,1.12 ± 0.053
